Reference: ChEMBL document CHEMBL1149204, “A new lead compound for abscisic acid biosynthesis inhibitors targeting 9-cis-epoxycarotenoid dioxygenase” (Bioorg Med Chem Lett, 2004)

Columns and labels:
[1] = Inhibitory activity was determined against 9-cis-epoxycarotenoid dioxygenase (NCED) expressed in Escherichia coli in presence of 9''-cis-neo-xanthin
Spinacia oleracea [2] = assay: Effect of compound at 100 uM concentration on ABA accumulation in spinachleaf slices determined as fresh weight of leaves (Experiment 2); type: functional
Spinacia oleracea [3] = assay: Effect of compound at 100 uM concentration on ABA accumulation in spinachleaf slices determined as fresh weight of leaves (Experiment 1); type: functional
Spinacia oleracea [4] = assay: Effect of compound at 100 uM concentration on ABA accumulation in spinachleaf slices determined as fresh weight of leaves (Experiment 3); type: functional
Spinacia oleracea [5] = assay: Effect of compound at 0.4 M concentration on ABA accumulation in spinachleaf slices determined as fresh weight of leaves (Experiment 2); type: functional
Spinacia oleracea [6] = assay: Effect of compound at 0.4 M concentration on ABA accumulation in spinachleaf slices determined as fresh weight of leaves (Experiment 1); type: functional
Spinacia oleracea [7] = assay: Effect of compound at 0.4 M concentration on ABA accumulation in spinachleaf slices determined as fresh weight of leaves (Experiment 3); type: functional

Compound	IC50 [1] [µM]	ABA content per fresh weight (Spinacia oleracea [2]) [ng/g]	ABA content per fresh weight (Spinacia oleracea [3]) [ng/g]	ABA content per fresh weight (Spinacia oleracea [4]) [ng/g]	Fresh weight (Spinacia oleracea [5]) [ng/g]	Fresh weight (Spinacia oleracea [6]) [ng/g]	Fresh weight (Spinacia oleracea [7]) [ng/g]
Oc1ccc(CCNCc2ccccc2O)cc1	160	–	–	–	–	–	–
COC(=O)CN(C/C=C/c1ccc(OC)c(OC)c1)Cc1ccc(F)cc1	55	82.8	14	65.6	–	–	–
COc1ccc(CCN(C)Cc2ccc(OC)c(OC)c2)cc1	87	–	–	–	–	–	–
COc1ccc(NC/C=C/c2ccc(OC)c(OC)c2)cc1	145	168.7	26.1	137.1	–	–	–
OC[C@@H](O)[C@@H](O)[C@H](O)[C@H](O)CO [MANNITOL]	–	–	–	–	178.4	22.7	134.9
CC(Cc1ccc(O)c(O)c1)C(C)Cc1ccc(O)c(O)c1 (configuration not stated) [NORDIHYDROGUAIARETIC ACID]	183	165.3	20.5	128.5	–	–	–
